Test results taken from ChEMBL document CHEMBL2375215, “Phenylpropiophenone derivatives as potential anticancer agents: synthesis, biological evaluation and quantitative structure-activity relationship study” (Eur J Med Chem, 2013).

Legend:
[1] = (§1) Cytotoxicity against human LS174 cells assessed as decrease in cell survival after 72 hrs by MTT assay; assay type: functional, cell-based; settings: LS174, 72 h
LS174 = experiment: as §1; assay type: functional, cell-based
K562 [2] = experiment: Cytotoxicity against human K562 cells assessed as decrease in cell survival after 72 hrs by MTT assay; assay type: functional, cell-based; settings: for IC50: K562, 72 h
HeLa [3] = experiment: Cytotoxicity against human HeLa cells assessed as decrease in cell survival after 72 hrs by MTT assay; assay type: functional, cell-based
PC-3 [4] = experiment: Cytotoxicity against human PC3 cells assessed as decrease in cell survival after 72 hrs by MTT assay; assay type: functional, cell-based; settings: for IC50: PC-3, 72 h
MCF7 [5] = experiment: Cytotoxicity against human MCF7 cells assessed as decrease in cell survival after 72 hrs by MTT assay; assay type: functional, cell-based; settings: for IC50: MCF7, 72 h
[6] = (§2) Cytotoxicity against human Fem-X cells assessed as decrease in cell survival after 72 hrs by MTT assay; assay type: functional, cell-based
Fem-X = experiment: as §2; assay type: functional, cell-based
PC-3 [7] = experiment: Selectivity index, ratio of IC50 for human PBMC to IC50 for human PC3 cells
MCF7 [8] = experiment: Selectivity index, ratio of IC50 for PHA-stimulated human PBMC to IC50 for human MCF7 cells
[9] = Selectivity index, ratio of IC50 for human PBMC to IC50 for human LS174 cells
[10] = Selectivity index, ratio of IC50 for PHA-stimulated human PBMC to IC50 for human LS174 cells
HeLa [11] = experiment: Selectivity index, ratio of IC50 for human PBMC to IC50 for human HeLa cells
K562 [12] = experiment: Selectivity index, ratio of IC50 for PHA-stimulated human PBMC to IC50 for human K562 cells
PBMC [13] = experiment: Cytotoxicity against PHA-stimulated human PBMC assessed as decrease in cell survival after 72 hrs by MTT assay; assay type: cell-based
K562 [14] = experiment: Selectivity index, ratio of IC50 for human PBMC to IC50 for human K562 cells
PBMC [15] = experiment: Cytotoxicity against human PBMC assessed as decrease in cell survival after 72 hrs by MTT assay; assay type: cell-based
HeLa [16] = experiment: Selectivity index, ratio of IC50 for PHA-stimulated human PBMC to IC50 for human HeLa cells
MCF7 [17] = experiment: Selectivity index, ratio of IC50 for human PBMC to IC50 for human MCF7 cells
[18] = Selectivity index, ratio of IC50 for PHA-stimulated human PBMC to IC50 for human Fem-X cells; assay type: functional
PC-3 [19] = experiment: Selectivity index, ratio of IC50 for PHA-stimulated human PBMC to IC50 for human PC3 cells
[20] = Selectivity index, ratio of IC50 for human PBMC to IC50 for human Fem-X cells

Row | Compound | IC50 ([1]; read-out: IC50) | IC50 ([1]; read-out: pIC50 (converted)) | Activity (LS174) | Activity (K562 [2]) | IC50 (K562 [2]; read-out: IC50) | IC50 (K562 [2]; read-out: pIC50 (converted)) | Activity (HeLa [3]) | IC50 (HeLa [3]; read-out: IC50) | IC50 (HeLa [3]; read-out: pIC50 (converted)) | Activity (PC-3 [4]) | IC50 (PC-3 [4]; read-out: IC50) | IC50 (PC-3 [4]; read-out: pIC50 (converted)) | Activity (MCF7 [5]) | IC50 (MCF7 [5]; read-out: IC50) | IC50 (MCF7 [5]; read-out: pIC50 (converted)) | IC50 ([6]; read-out: IC50) | IC50 ([6]; read-out: pIC50 (converted)) | Activity (Fem-X) | Ratio IC50 (PC-3 [7]) | Ratio IC50 (MCF7 [8]) | other results
1 | O=C(/C=C/c1ccc(F)cc1)c1ccccc1O | 35.3 µM | 35.3 µM | Dose-dependent effect | Dose-dependent effect | 17.9 µM | 17.9 µM | Dose-dependent effect | 22.6 µM | 22.6 µM | Dose-dependent effect | 30.4 µM | 30.4 µM | Dose-dependent effect | 26 µM | 26 µM | 21.8 µM | 21.8 µM | Dose-dependent effect |  |  | 
2 | O=C(/C=C/c1ccccc1C(F)(F)F)c1ccccc1O | 26.4 µM | 26.4 µM | Dose-dependent effect | Dose-dependent effect | 9.2 µM | 9.2 µM | Dose-dependent effect | 18.1 µM | 18.1 µM | Dose-dependent effect | 33.5 µM | 33.5 µM | Dose-dependent effect | 16.9 µM | 16.9 µM | 10.2 µM | 10.2 µM | Dose-dependent effect | 1.25 | 2.07 | Ratio IC50 [9]: 1.59; Ratio IC50 [10]: 1.32; Ratio IC50 (HeLa [11]): 2.31; Ratio IC50 (K562 [12]): 3.79; IC50 (PBMC [13]): 25.2 µM; Ratio IC50 (K562 [14]): 4.55; IC50 (PBMC [15]): 41.9 µM; Ratio IC50 (HeLa [16]): 1.92; Ratio IC50 (MCF7 [17]): 2.48; Ratio IC50 [18]: 3.42; Ratio IC50 (PC-3 [19]): 1.04; Ratio IC50 [20]: 4.1
3 | Cc1ccc(/C=C/C(=O)c2ccccc2O)cc1 | 41.2 µM | 41.2 µM | Dose-dependent effect | Dose-dependent effect | 18.9 µM | 18.9 µM | Dose-dependent effect | 20.6 µM | 20.6 µM | Dose-dependent effect | 27.6 µM | 27.6 µM | Dose-dependent effect | 33.9 µM | 33.9 µM | 21.2 µM | 21.2 µM | Dose-dependent effect |  |  | 
4 | CCCNCC(O)COc1ccccc1C(=O)CCc1ccccc1C.Cl (racemic) | 20.3 µM | 20.3 µM | Dose-dependent effect | Dose-dependent effect | 8.1 µM | 8.1 µM | Dose-dependent effect | 8.9 µM | 8.9 µM | Dose-dependent effect | 18 µM | 18 µM | Dose-dependent effect | 23.4 µM | 23.4 µM | 6.8 µM | 6.8 µM | Dose-dependent effect | 2.91 | 2.13 | Ratio IC50 [9]: 2.58; Ratio IC50 [10]: 2.45; Ratio IC50 (HeLa [11]): 5.89; Ratio IC50 (K562 [12]): 6.15; IC50 (PBMC [13]): 49.8 µM; Ratio IC50 (K562 [14]): 6.47; IC50 (PBMC [15]): 52.4 µM; Ratio IC50 (HeLa [16]): 5.6; Ratio IC50 (MCF7 [17]): 2.24; Ratio IC50 [18]: 7.32; Ratio IC50 (PC-3 [19]): 2.77; Ratio IC50 [20]: 7.71
5 | O=C(/C=C/c1ccccc1F)c1ccccc1O | 17.4 µM | 17.4 µM | Dose-dependent effect | Dose-dependent effect | 4.8 µM | 4.8 µM | Dose-dependent effect | 8.9 µM | 8.9 µM | Dose-dependent effect | 21.6 µM | 21.6 µM | Dose-dependent effect | 14.4 µM | 14.4 µM | 8.7 µM | 8.7 µM | Dose-dependent effect | 0.81 | 1.14 | Ratio IC50 [9]: 1.01; Ratio IC50 [10]: 0.94; Ratio IC50 (HeLa [11]): 1.98; Ratio IC50 (K562 [12]): 3.41; IC50 (PBMC [13]): 16.4 µM; Ratio IC50 (K562 [14]): 3.67; IC50 (PBMC [15]): 17.6 µM; Ratio IC50 (HeLa [16]): 1.84; Ratio IC50 (MCF7 [17]): 1.22; Ratio IC50 [18]: 1.88; Ratio IC50 (PC-3 [19]): 0.76; Ratio IC50 [20]: 2.02
6 | CCCNCC(O)COc1ccccc1C(=O)CCc1ccc(F)cc1.Cl (racemic) | 23.2 µM | 23.2 µM | Dose-dependent effect | Dose-dependent effect | 27.7 µM | 27.7 µM | Dose-dependent effect | 16.1 µM | 16.1 µM | Dose-dependent effect | 31.9 µM | 31.9 µM | Dose-dependent effect | 33 µM | 33 µM | 9.6 µM | 9.6 µM | Dose-dependent effect | 3.35 | 1.48 | Ratio IC50 [9]: 2.6; Ratio IC50 [10]: 2.1; Ratio IC50 (HeLa [11]): 3.75; Ratio IC50 (K562 [12]): 1.76; IC50 (PBMC [13]): 48.8 µM; Ratio IC50 (K562 [14]): 2.18; IC50 (PBMC [15]): 60.3 µM; Ratio IC50 (HeLa [16]): 3.03; Ratio IC50 (MCF7 [17]): 1.83; Ratio IC50 [18]: 5.08; Ratio IC50 (PC-3 [19]): 1.53; Ratio IC50 [20]: 6.28
7 | CCCNCC(O)COc1ccccc1C(=O)CCc1ccccc1C(F)(F)F.Cl (racemic) | 18.6 µM | 18.6 µM | Dose-dependent effect | Dose-dependent effect | 8.8 µM | 8.8 µM | Dose-dependent effect | 6.78 µM | 6.78 µM | Dose-dependent effect | 23.3 µM | 23.3 µM | Dose-dependent effect | 9.7 µM | 9.7 µM | 16.1 µM | 16.1 µM | Dose-dependent effect | 1.91 | 3.66 | Ratio IC50 [9]: 2.39; Ratio IC50 [10]: 1.91; Ratio IC50 (HeLa [11]): 6.55; Ratio IC50 (K562 [12]): 4.03; IC50 (PBMC [13]): 35.5 µM; Ratio IC50 (K562 [14]): 5.05; IC50 (PBMC [15]): 44.4 µM; Ratio IC50 (HeLa [16]): 5.24; Ratio IC50 (MCF7 [17]): 4.58; Ratio IC50 [18]: 2.2; Ratio IC50 (PC-3 [19]): 1.52; Ratio IC50 [20]: 2.76
8 | Cc1ccccc1/C=C/C(=O)c1ccccc1O | 48.8 µM | 48.8 µM | Dose-dependent effect | Dose-dependent effect | 18.5 µM | 18.5 µM | Dose-dependent effect | 14.7 µM | 14.7 µM | Dose-dependent effect | 19.2 µM | 19.2 µM | Dose-dependent effect | 37.7 µM | 37.7 µM | 22.4 µM | 22.4 µM | Dose-dependent effect |  |  | 
9 | O=C(/C=C/c1ccccc1Cl)c1ccccc1O | 32.2 µM | 32.2 µM | Dose-dependent effect | Dose-dependent effect | 9.8 µM | 9.8 µM | Dose-dependent effect | 11.2 µM | 11.2 µM | Dose-dependent effect | 20.1 µM | 20.1 µM | Dose-dependent effect | 29.8 µM | 29.8 µM | 10.4 µM | 10.4 µM | Dose-dependent effect |  |  | 
10 | CCCNCC(O)COc1ccccc1C(=O)CCc1ccc(C)cc1.Cl (racemic) | 20.8 µM | 20.8 µM | Dose-dependent effect | Dose-dependent effect | 14.7 µM | 14.7 µM | Dose-dependent effect | 21.7 µM | 21.7 µM | Dose-dependent effect | 24.7 µM | 24.7 µM | Dose-dependent effect | 31.7 µM | 31.7 µM | 12.7 µM | 12.7 µM | Dose-dependent effect | 1.97 | 1.31 | Ratio IC50 [9]: 2.34; Ratio IC50 [10]: 1.99; Ratio IC50 (HeLa [11]): 2.24; Ratio IC50 (K562 [12]): 2.82; IC50 (PBMC [13]): 41.4 µM; Ratio IC50 (K562 [14]): 3.31; IC50 (PBMC [15]): 48.7 µM; Ratio IC50 (HeLa [16]): 1.91; Ratio IC50 (MCF7 [17]): 1.54; Ratio IC50 [18]: 3.26; Ratio IC50 (PC-3 [19]): 1.68; Ratio IC50 [20]: 3.83
